Measurements from the NIST ThermoML archive (doi:10.1007/s10765-011-0989-8).

Conditions: 101 kPa, Liquid; for viscosity: Capillary tube (Ostwald / Ubbelohde) method; for mass density: Pycnometric method

CO [methanol]
Conditions | mass density [kg/m3] | viscosity [mPa·s]
293.15 K | 791 | 0.595
298.15 K | 786.4 | 0.552
303.15 K | 781.8 | 0.514
308.15 K | 777.2 | 0.478
313.15 K | 771.8 | 0.449
323.15 K | 762.3 | 0.394
333.15 K | 752.4 | 0.349
